Test results from patent US11939377B2, “Affinity matured CD22-specific monoclonal antibody and uses thereof” (The U.S.A., as represented by the Secretary, Department of …, priority 2018, dated 2024).

Test system: CD22 expression on ALL and DLBCL cell lines (Nalm6, Kopn8, SEM, Pfeiffer, Toledo, PDX)
Experiment: CD22 expression on leukemia/lymphoma cells by flow cytometry after drug exposure in vitro
Type: cell-based, human
Experimental: FIGS. 3A-3D: (FIG. 3A) Four cell lines (Nalm6, Kopn8, Pfieffer and Toldeo) were co-incubated with 1 ng/ml Bryostatin 1 for 24 hours and analyzed using flow cytometry one day after Bryostatin 1 exposure. Site density was analyzed using standardized Quantibrite-PE beads. (FIG. 3B) Cell lines were co-incubated with 1 ng/ml Bryostatin 1 for 24 hours, washed, and analyzed using flow cytometry at 1 and 7 days after Bryostatin 1 exposure. Fold change was calculated based on site density: (Cell line Bryostatin 1—Cell line DMSO)/Cell line DMSO. (FIG. 3C) NSG mice were injected with 1×10^6 GPF-positive Nalm6 leukemia cells on Day 0. Bryostatin 1 was administered at 0.8 μg/kg on Day 3. Mice were sacrificed 7 and 12 days after Bryostatin 1 injection and CD22 was evaluated by flow cytometry. (FIG. 3D) CD22-low relapse PDX cell line was cultured in vitro with 1 nmol/L Bryostatin 1 for 24 hours and measured for CD22 expression using CD22 antibody.
FIGS. 10A-10E: (FIG. 10A) Three cell lines (Toldeo, Kopn8 and Nalm6) were co-incubated with Bryostatin 1 at varying concentrations for 24 hours. At 24 hours, cells were collected for protein kinase C (PKC)-βII isoform analysis by western blot. (FIG. 10B) KOPN8 or SEM cell lines were exposed to Bryostatin 1 for 16, 24, 48 or 72 hours. RNA was extracted from cells and analyzed using RNAseq. (FIG. 10C) Immunofluorescent staining of CD22 was conducted through permeabilization followed by staining of CD22. (FIG. 10D) Four cell lines were co-incubated with various combinations of Enzastaurin (10 μM), Staurosporine (100 μM), or Bryostatin 1 (1 nM) for 24 hours. CD22 expression was assessed using flow cytometry. MFI fold change=CD22 MFI^Bryostatin1/CD22 MFI^DMSO. (FIG. 10E) Cell lines were co-incubated with 1 nM Bryostatin 1 for 24 hours and measured for CD22 expression using CD22-PE antibody. MFI fold change=CD22 MFI^Bryostatin 1/CD22 MFI^DMSO.
FIG. 11: CD22^lo or parental Nalm6 cell lines were exposed to 1 ng/ml Bryostatin 1 for 24 hours. CD22 expression was assessed using flow cytometry.
For all in vitro experiments and tumor/CAR pretreatment prior to intravenous injection, Bryostatin 1 was administered to cells at a concentration of 1 ng/mL. Dimethyl sulfoxide (DMSO) vehicle control was administered to control-treated cells at an equal volume. Prior to co-culture or intravenous injection, Bryostatin 1- and DMSO-treated cells were washed 3x in sterile PBS. For all in vivo experiments, Bryostatin 1 was diluted in PBS and administered via intraperitoneal injection at a dose of 40 μg/kg (1 μg/25 g mouse). For control-treated groups, an equal volume of DMSO was diluted in PBS and administered in the same manner
FACS analysis of cell surface CAR and protein expression was performed using an LSR II Fortessa flow cytometer (BD Biosciences). CD22-CAR was detected by incubation with 22-Fc (R&D Systems), followed by incubation with human IgG-specific PE-F(ab)2 (Thermo Fisher Scientific). The following human monoclonal antibodies were used for detection of cell surface proteins: CD22-APC, CD22-PE, CD19-Pacific Blue, CD45-PerCP/Cy5.5, CD3-APC/Cy7, PD1-PE/Cy7, LAG3-APC, TIM3-Pacific Blue, CD8-APC, CD8-PE/Cy7, CD45RA-APC, CD45RO-PE/Cy7, CCR7-Pacific Blue, CD4-Pacific Blue, CD69-APC (all from BioLegend). CD22 site density was determined using QuantiBrite-PE beads (BD Biosciences) using methods previously described (Jasper et al., Cytometry B Clin Cytom 80(2):83-90, 2011). Dead cells were identified using eFluor 506 fixable viability dye (Thermo Fisher Scientific). GFP-expressing leukemia cells were identified through the FITC channel.

SMILES: CCC/C=C/C=C/C(=O)O[C@H]1/C(=C/C(=O)OC)C[C@H]2C[C@H]([C@@H](C)O)OC(=O)C[C@H](O)C[C@@H]3C[C@H](OC(C)=O)C(C)(C)[C@](O)(C[C@@H]4C/C(=C/C(=O)OC)C[C@H](/C=C/C(C)(C)[C@]1(O)O2)O4)O3 [Bryostatin 1]
- persistence of increased CD22 expression following removal of drug (24 hours exposure, washed, analyzed at 1 and 7 days): persisted for a week
- CD22 expression on CD22^lo leukemia cells following exposure (CD22^lo Nalm6, 1 ng/ml, 24 hours): did not demonstrate an increase
- CD22 expression (MFI fold change) (KOPN8 and SEM, 1 nM, 24 hours): robust upregulation
- CD22 on CD22-low relapse patient-derived ALL xenograft (PDX cell line cultured in vitro, 1 nmol/L, 24 hours): upregulated
- CD22 expression upon exposure (all four cell lines (two pre-B ALL, two DLBCL), 1 ng/ml, 24 hours): significant increase
